In patent publication US20050209248A1, “Plymorphic forms of phenyl oxazolidinone derivatives” (priority 2002, published 2005):
Converted amounts (≈) assume the structure as drawn. Like-named read-outs stand apart in the source and are kept apart here.

Key:
[1] = test system: Mycobacterium avium intracellulare; experiment: Agar dilution method (Middlebrook 7H10); format: cell-based; details: 504 h, 21 days at 37° C.; for MIC: read-out: G.M. (MIC)
[2] = test system: Mycobacterium tuberculosis; experiment: Agar dilution method for M. tuberculosis (Middlebrook 7H10); format: cell-based; details: 504 h; for MIC90 / MIC: 21 days at 37° C.; for MIC: read-out: G.M. (MIC)
anaerobic bacteria = experiment: NCCLS agar dilution MIC, anaerobic bacteria (summary); format: cell-based; details: anaerobes, Wilkins Chalgren Agar, 48 hour anaerobic incubation; for MIC Range: in µg/mL
[3] = test system: Porphyromonas asaccharolytica; experiment: Agar dilution MIC; format: cell-based; details: Porphyromonas asaccharolytica isolate
Porphyromonas gingivalis = experiment: Agar dilution MIC; format: cell-based; details: Porphyromonas gingivalis isolate
Prevotella bivia = experiment: Agar dilution MIC; format: cell-based; details: Prevotella bivia isolate
Fusobacterium necrogenes = experiment: Agar dilution MIC; format: cell-based; details: Fusobacterium necrogenes isolate
[4] = test system: MRSA 1029/99 and MRSE 879/247; experiment: Inhibition of biofilm (slime) production, safranin staining; format: cell-based; details: trypticase soy broth with 2% glucose, overnight 37° C., Graphs A to D
Description: (§1) Inhibition of slime production • 2. Activity against glass-adherent bacteria.
To study the effect of polymorphic ‘Form A’ on the inhibition of biofilm production, the following study was carried out as set forth in Blake et al. J. Clinical Microbiol. 2001; 39:544-550; and Polonio et al. Chemother. 2001; 45:3262-3266. […] Bacterial suspensions (in triplicate) were exposed a doubling dilution of antibiotics and incubated overnight at 37° C. with constant shaking (100 rpm). The next day, after aspirating the medium, the biofilm was stained with safranin (0.1%) for 1 hour at room temperature, washed with distilled water, tapped dry and stain-extracted into 200 μl of 0.2M NaoH and the OD measured at 544 nm.

MRSE 879 = experiment: Broth MIC; format: cell-based; details: for MIC: Staphylococcus epidermidis, read-out: broth MIC
From the text: (§2) The change in MIC in broth and on sintered glass adherent bacteria is presented in Graph E. [drawing]

[5] = test system: MRSE 879 adherent bacteria; experiment: Sintered glass adherent bacteria model; format: cell-based; details: MRSE 879, sintered glass adherent
From the text: as §1, §2

[6] = in vivo; cited from earlier work
Clostridium perfringens = format: cell-based

Molecule: CO[C@H]1/C=C/O[C@@]2(C)Oc3c(C)c(O)c4c(O)c(c(/C=N/N5CCN(C)CC5)c(O)c4c3C2=O)NC(=O)/C(C)=C\C=C\[C@H](C)[C@H](O)[C@@H](C)[C@@H](O)[C@@H](C)[C@H](OC(C)=O)[C@@H]1C [Rifampicin]
- MIC50 [1]: 1 µg/mL (≈ 1.22 µM)
- MIC90 [1]: 32 µg/mL (≈ 38.9 µM)
- MIC [1]: 2 µg/mL (≈ 2.43 µM)
- MIC50 [2]: 64 µg/mL (≈ 77.8 µM)
- MIC90 [2]: 64 µg/mL (≈ 77.8 µM)
- MIC [2]: 6.35 µg/mL (≈ 7.72 µM)

Molecule: C[C@@H](O)[C@H]1C(=O)N2C(C(=O)O)=C(SCCN=CN)C[C@H]12 [Imipenem]
- Geometric Mean (MIC) (anaerobic bacteria): 0.084 µg/mL
- MIC50 (anaerobic bacteria): 0.064 µg/mL (≈ 0.214 µM)
- MIC90 (anaerobic bacteria): 1 µg/mL (≈ 3.34 µM)
- MIC Range (anaerobic bacteria): 0.008-4
- MIC [3]: 0.03 µg/mL (≈ 0.1 µM)
- MIC (Porphyromonas gingivalis): ≤ 0.016 µg/mL
- MIC (Prevotella bivia): 0.03 µg/mL (≈ 0.1 µM)
- MIC (Fusobacterium necrogenes): 0.25 µg/mL (≈ 0.835 µM)

Molecule: C[C@@H]1CN(c2c(F)c(N)c3c(=O)c(C(=O)O)cn(C4CC4)c3c2F)C[C@H](C)N1 [Sparfloxacin]
- MIC50 [1]: 4 µg/mL (≈ 10.2 µM)
- MIC90 [1]: 8 µg/mL (≈ 20.4 µM)
- MIC [1]: 3.53 µg/mL (≈ 8.99 µM)
- MIC50 [2]: 1 µg/mL (≈ 2.55 µM)
- MIC90 [2]: 2 µg/mL (≈ 5.1 µM)
- MIC [2]: 0.53 µg/mL (≈ 1.35 µM)

Molecule: CC(=O)NC[C@H]1CN(c2ccc(N3CCN(Cc4ccc([N+](=O)[O-])o4)CC3)c(F)c2)C(=O)O1.Cl [Polymorphic ‘Form A’]
- Geometric Mean (MIC) (anaerobic bacteria): 0.037 µg/mL
- MIC50 (anaerobic bacteria): 0.032 µg/mL
- MIC90 (anaerobic bacteria): 0.25 µg/mL
- MIC Range (anaerobic bacteria): 0.004-1
- Inhibition of Biofilm formation [4]: occurs at a lower concentration
- MIC [3]: ≤ 0.008 µg/mL
- MIC (Porphyromonas gingivalis): ≤ 0.008 µg/mL
- MIC (Prevotella bivia): 0.125 µg/mL
- MIC (Fusobacterium necrogenes): ≤ 0.008 µg/mL
- MIC50 [1]: 8 µg/mL
- MIC90 [1]: 32 µg/mL
- MIC [1]: 8.52 µg/mL
- MIC (MRSE 879; MRSE 879, broth): 0.5 µg/mL
- MIC50 [2]: 4 µg/mL
- MIC90 [2]: 64 µg/mL
- MIC [2]: 5.44 µg/mL
- concentration which would kill adherent bacteria [5]: 2 µg/mL

Molecule: COc1c(N2C[C@@H]3CCCN[C@@H]3C2)c(F)cc2c(=O)c(C(=O)O)cn(C3CC3)c12 [Moxifloxacin]
- MIC [3]: 0.5 µg/mL (≈ 1.25 µM)
- MIC (Porphyromonas gingivalis): 0.03 µg/mL (≈ 0.0747 µM)
- MIC (Fusobacterium necrogenes): 1 µg/mL (≈ 2.49 µM)

Molecule: CC(=O)NC[C@H]1CN(c2ccc(N3CCOCC3)c(F)c2)C(=O)O1 [Linezolid]
- Geometric Mean (MIC) (anaerobic bacteria): 1.13 µg/mL
- MIC50 (anaerobic bacteria): 1 µg/mL (≈ 2.96 µM)
- MIC90 (anaerobic bacteria): 4 µg/mL (≈ 11.9 µM)
- MIC Range (anaerobic bacteria): 0.25-4
- MIC [3]: 1 µg/mL (≈ 2.96 µM)
- MIC (Porphyromonas gingivalis): 1 µg/mL (≈ 2.96 µM)
- MIC (Prevotella bivia): 1 µg/mL (≈ 2.96 µM)
- MIC (Fusobacterium necrogenes): 0.5 µg/mL (≈ 1.48 µM)
- MIC50 [1]: 16 µg/mL (≈ 47.4 µM)
- MIC90 [1]: 64 µg/mL (≈ 190 µM)
- MIC [1]: 20.6 µg/mL (≈ 61 µM)
- MIC (MRSE 879; MRSE 879, broth): 2 µg/mL (≈ 5.93 µM)
- Cmax [6]: 12000 to 16000 ng/mL
- MIC50 [2]: 8 µg/mL (≈ 23.7 µM)
- MIC90 [2]: 64 µg/mL (≈ 190 µM)
- MIC [2]: 8 µg/mL (≈ 23.7 µM)
- concentration which would kill adherent bacteria [5]: 32 µg/mL

Molecule: Amox + clav
- Geometric Mean (MIC) (anaerobic bacteria): 0.423 µg/mL
- MIC50 (anaerobic bacteria): 0.25 µg/mL
- MIC90 (anaerobic bacteria): 8 µg/mL
- MIC Range (anaerobic bacteria): 0.062-32
- MIC [3]: ≤ 0.125 µg/mL
- MIC (Porphyromonas gingivalis): ≤ 0.125 µg/mL
- MIC (Prevotella bivia): ≤ 0.125 µg/mL
- MIC (Fusobacterium necrogenes): 0.5 µg/mL

Molecule: CC1(C)S[C@@H]2[C@H](NC(=O)[C@H](N)c3ccc(O)cc3)C(=O)N2[C@H]1C(=O)O [Amox]
- Geometric Mean (MIC) (anaerobic bacteria): 1.37 µg/mL
- MIC50 (anaerobic bacteria): 1 µg/mL (≈ 2.74 µM)
- MIC90 (anaerobic bacteria): 256 µg/mL (≈ 701 µM)
- MIC Range (anaerobic bacteria): 0.062-256
- MIC (Fusobacterium necrogenes): 0.5 µg/mL (≈ 1.37 µM)

Molecule: CCC[C@@H]1C[C@@H](C(=O)N[C@@H]([C@H]2O[C@H](SC)[C@H](O)[C@@H](O)[C@H]2O)[C@H](C)Cl)N(C)C1 [Clindamycin]
- Geometric Mean (MIC) (anaerobic bacteria): 0.208 µg/mL
- MIC50 (anaerobic bacteria): 0.125 µg/mL (≈ 0.294 µM)
- MIC90 (anaerobic bacteria): 8 µg/mL (≈ 18.8 µM)
- MIC Range (anaerobic bacteria): 0.008-64
- MIC [3]: ≤ 0.016 µg/mL
- MIC (Porphyromonas gingivalis): ≤ 0.016 µg/mL
- MIC (Prevotella bivia): > 32 µg/mL
- MIC (Fusobacterium necrogenes): 0.03 µg/mL (≈ 0.0706 µM)

Molecule: CC[C@H]1OC(=O)[C@H](C)[C@@H](O[C@H]2C[C@@](C)(OC)[C@@H](O)[C@H](C)O2)[C@H](C)[C@@H](O[C@@H]2O[C@H](C)C[C@H](N(C)C)[C@H]2O)[C@](C)(OC)C[C@@H](C)C(=O)[C@H](C)[C@@H](O)[C@]1(C)O [Clarithromycin]
- MIC50 [1]: 1 µg/mL (≈ 1.34 µM)
- MIC90 [1]: 4 µg/mL (≈ 5.35 µM)
- MIC [1]: 1.55 µg/mL (≈ 2.08 µM)
- MIC50 [2]: 16 µg/mL (≈ 21.4 µM)
- MIC90 [2]: 32 µg/mL (≈ 42.8 µM)
- MIC [2]: 12.7 µg/mL (≈ 17 µM)

Molecule: NNC(=O)c1ccncc1 [Isoniazid]
- MIC50 [1]: 32 µg/mL (≈ 233 µM)
- MIC90 [1]: 64 µg/mL (≈ 467 µM)
- MIC [1]: 18.1 µg/mL (≈ 132 µM)
- MIC50 [2]: 8 µg/mL (≈ 58.3 µM)
- MIC90 [2]: 64 µg/mL (≈ 467 µM)
- MIC [2]: 3.17 µg/mL (≈ 23.1 µM)

Molecule: COc1c(N2CCNC(C)C2)c(F)cc2c(=O)c(C(=O)O)cn(C3CC3)c12 (stereo not shown) [Gatifloxacin]
- Geometric Mean (MIC) (anaerobic bacteria): 0.659 µg/mL
- MIC50 (anaerobic bacteria): 0.5 µg/mL (≈ 1.33 µM)
- MIC90 (anaerobic bacteria): 2 µg/mL (≈ 5.33 µM)
- MIC Range (anaerobic bacteria): 0.06-32
- MIC [3]: 0.25 µg/mL (≈ 0.666 µM)
- MIC (Porphyromonas gingivalis): 0.06 µg/mL (≈ 0.16 µM)
- MIC (Prevotella bivia): 2 µg/mL (≈ 5.33 µM)
- MIC (Fusobacterium necrogenes): 0.5 µg/mL (≈ 1.33 µM)

Molecule: Cc1ncc([N+](=O)[O-])n1CCO [Metronidazole]
- Geometric Mean (MIC) (anaerobic bacteria): 0.48 µg/mL
- MIC50 (anaerobic bacteria): 0.5 µg/mL (≈ 2.92 µM)
- MIC90 (anaerobic bacteria): 2 µg/mL (≈ 11.7 µM)
- MIC Range (anaerobic bacteria): 0.062-32
- MIC (Prevotella bivia): 1 µg/mL (≈ 5.84 µM)
- MIC (Fusobacterium necrogenes): 0.25 µg/mL (≈ 1.46 µM)

Molecule: Synercid
- Geometric Mean (MIC) (anaerobic bacteria): 1.61 µg/mL
- MIC50 (anaerobic bacteria): 1 µg/mL
- MIC90 (anaerobic bacteria): 16 µg/mL
- MIC Range (anaerobic bacteria): 0.062-16
- MIC [3]: ≤ 0.125 µg/mL
- MIC (Porphyromonas gingivalis): 0.25 µg/mL
- MIC (Prevotella bivia): 2 µg/mL
- MIC (Fusobacterium necrogenes): 0.25 µg/mL
- broth MIC (MRSE 879; MRSE 879, broth): 0.5 µg/mL
- concentration which would kill adherent bacteria [5]: 2 µg/mL

Molecule: CN[C@H](CC(C)C)C(=O)N[C@H]1C(=O)N[C@@H](CC(N)=O)C(=O)N[C@H]2C(=O)N[C@H]3C(=O)N[C@H](C(=O)N[C@H](C(=O)O)c4cc(O)cc(O)c4-c4cc3ccc4O)[C@H](O)c3ccc(c(Cl)c3)Oc3cc2cc(c3O[C@@H]2O[C@H](CO)[C@@H](O)[C@H](O)[C@H]2O[C@H]2C[C@](C)(N)[C@H](O)[C@H](C)O2)Oc2ccc(cc2Cl)[C@H]1O [Vancomycin]
- Geometric Mean (MIC) (anaerobic bacteria): 9.31 µg/mL
- MIC50 (anaerobic bacteria): 32 µg/mL (≈ 22.1 µM)
- MIC90 (anaerobic bacteria): 32 µg/mL (≈ 22.1 µM)
- MIC Range (anaerobic bacteria): 0.5-32
- MIC [3]: 2 µg/mL (≈ 1.38 µM)
- MIC (Clostridium perfringens): 0.5 µg/mL (≈ 0.345 µM)
- MIC (Porphyromonas gingivalis): 8 µg/mL (≈ 5.52 µM)
- MIC (Prevotella bivia): > 16 µg/mL
- MIC (Fusobacterium necrogenes): > 16 µg/mL
- MIC (MRSE 879; MRSE): 1 µg/mL (≈ 0.69 µM)
- concentration which would kill adherent bacteria [5]: 8 µg/mL

Molecule: Teicoplanin
- Geometric Mean (MIC) (anaerobic bacteria): 2.04 µg/mL
- MIC50 (anaerobic bacteria): 2 µg/mL
- MIC90 (anaerobic bacteria): 32 µg/mL
- MIC Range (anaerobic bacteria): 0.03-32
- MIC [3]: 0.125 µg/mL
- MIC (Porphyromonas gingivalis): ≤ 0.06 µg/mL
- MIC (Prevotella bivia): 1 µg/mL
- MIC (Fusobacterium necrogenes): > 16 µg/mL
